Assay results published in paper PMC6535779, “A Specific, Glycomimetic Langerin Ligand for Human Langerhans Cell Targeting” (ACS Central Science, 2019).

Key:
[1] = target: T1, Langerin extracellular domain (ECD) (Homo sapiens, UniProt Q9UJ71); assay: 19F R2-filtered NMR reporter displacement assay with Langerin; assay type: binding; conditions: calculated utilizing the KI value determined for 21
T1 construct: the trimeric Langerin extracellular domain (ECD) was expressed insolubly in E; made in house
T1 sequence (Q9UJ71 65-328 limits assumed): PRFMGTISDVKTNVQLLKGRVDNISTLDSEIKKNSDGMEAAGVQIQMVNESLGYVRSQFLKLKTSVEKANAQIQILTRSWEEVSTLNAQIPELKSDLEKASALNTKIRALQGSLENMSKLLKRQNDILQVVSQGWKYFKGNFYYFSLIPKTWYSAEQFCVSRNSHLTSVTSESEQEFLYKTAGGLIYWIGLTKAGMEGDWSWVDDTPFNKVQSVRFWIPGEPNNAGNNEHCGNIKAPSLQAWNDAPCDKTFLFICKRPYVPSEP
Experimental: (§1) Receptor Expression and Purification
General remarks. Codon-optimized genes for the expression of Langerin and DC-SIGN in E. coli were purchased from GenScript and Life Technologies, respectively. All growth media or chemicals used for receptor expression and purification were purchased from Carl Roth if not stated otherwise.
Langerin extracellular domain. Expression and purification were conducted as previously published14. Briefly, the trimeric Langerin extracellular domain (ECD) was expressed insolubly in E. coli BL21* (DE3) (Invitrogen). Following enzymatic cell lysis, inclusion bodies were harvested and subsequently solubilized. The sample was centrifuged and the Langerin ECD was refolded overnight via rapid dilution. Next, the sample was dialyzed overnight, centrifuged and purified via mannan-agarose affinity chromatography (Sigma Aldrich). For 19F R2-filtered NMR and lipid-enzyme-linked lectin assay (Lipid-ELLA) experiments, the buffer was exchanged to 25 mM Tris with 150 mM NaCl and 5 mM CaCl2 at pH 7.8 using 7 kDa size-exclusion desalting columns (Thermo Scientific). For […]
D2O, 150 mM NaCl and 5 mM CaCl2 at pH 7. The concentration of Langerin ECD was determined via UV spectroscopy (A280, 0.1% = 2.45). Purity and monodispersity of Langerin ECD samples were analyzed via SDS PAGE and DLS. […]
(§2) General remarks. 19F R2-filtered NMR experiments were conducted on a PremiumCompact 600 MHz spectrometer (Agilent). Spectra were processed in MestReNova and data analysis was performed with OriginPro 13, 15. Experiments with the Langerin ECD were performed at a receptor concentration of 50 μM in 25 mM Tris with 10% D2O, 150 mM NaCl and 5 mM CaCl2 at pH 7.8 and 25° C. […]
10% D2O, 150 mM NaCl and 5 mM CaCl2 at pH 7.0 and 25°C. TFA served as an internal reference at a concentration of 50 μM. Apparent relaxation rates R2,obs for the reporter ligand were determined using the CPMG pulse sequence as previously published3-5. […]
KI determination. KI values were determined as previously published for Langerin3. Briefly, titration experiments were conducted at a concentration of 0.1 mM of reporter ligand 24 at five competitor concentrations [I]T. Samples were prepared via serial dilution. For the acids GlcNS, GlcNAc-6-OS and GlcNS-6-OS the pH values were monitored and adjusted to 7.8 if necessary.
General remarks. 15N HSQC NMR experiments were conducted on an Ascend 700 MHz spectrometer (Bruker)16. Spectra were processed in NMRPipe17. Data analysis was performed using CCPN Analysis, MatLab and OriginPro15, 18-19. Experiments with the Langerin CRD were performed at a receptor concentration of 100 μM in 25 mM HEPES with 10% D 2O, 150 mM NaCl and 5 mM CaCl2 at pH 7.8 and 25° C. DSS-d6 served as an internal reference at a concentration of 100 μM. Spectra were referenced via the internal spectrometer reference. Spectra were acquired with 128 increments and 32 scans per increments for 150 μl samples in 3 mm sample tubes. The relaxation delay d1 was set to 1.4 s and the acquisition time tacq was set to 100 ms. The W5 Watergate pulse sequence was used for solvent suppression20. The used resonance assignment for the Langerin CRD has been published […]
KD determination. KD values were determined in titration experiments at six ligand concentrations [L]T. Samples were prepared via serial dilution. Chemical shift perturbations CSPs for Langerin CRD resonances in the fast or fast-to-intermediate exchange regime observed upon titration with ligand were calculated via Equation 121.

[2] = target: T1, Langerin extracellular domain (ECD); design: method as in PMID 27458873; conditions: 19F R2-filtered NMR; previously published value; cited from earlier work
Langerin CRD = target: T2, Langerin CRD (Homo sapiens, UniProt Q9UJ71); design: method as in PMID 27458873; conditions: previously published value; cited from earlier work
T2 construct: Experiments with the Langerin CRD were performed at; made in house
T2 sequence (Q9UJ71 202-320 limits assumed): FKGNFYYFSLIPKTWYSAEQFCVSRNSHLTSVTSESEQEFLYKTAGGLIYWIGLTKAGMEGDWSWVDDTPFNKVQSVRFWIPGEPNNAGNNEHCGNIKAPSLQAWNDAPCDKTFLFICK

DC-SIGN CRD = target: T3, DC-SIGN CRD (Homo sapiens, UniProt Q9NNX6); assay: 19F R2-filtered NMR reporter displacement assay with DC-SIGN; assay type: binding
T3 construct: with the DC-SIGN CRD were performed at a receptor concentration of 50 μM; made in house
T3 sequence (Q9NNX6 263-378 limits assumed): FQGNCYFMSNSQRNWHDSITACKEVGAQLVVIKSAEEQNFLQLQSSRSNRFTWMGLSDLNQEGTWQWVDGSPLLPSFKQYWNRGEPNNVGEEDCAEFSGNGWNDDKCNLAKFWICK
Text: Figure S7. 19F R2-filtered NMR assay development with DC-SIGN. […]
substantial line broadeni ng. This phenomenon was utilized to develop the 19F R2-filtered NMR reporter displacement assay following the procedure previously published for Langerin 3. The spectrum in absence of DC -SIGN is processed with an exponential apodization function at 1.8 Hz. b. The interaction between 24 and DC-SIGN was quantified via the transversal relaxation rate R2,obs using the CPMG pulse sequence4-5. Representative decay curves in the presence of DC-SIGN are shown. c. The Ca2+-dependency of the interaction was validated via addition of EDTA. The R2,obs value in absence of DC-SIGN was determined from four independent experiments. The standard error for the experiments in presence of DC-SIGN and EDTA is derived directly from the fitting procedure. d. Relaxation dispersion experiments for 24 in presence of DC-SIGN indicate at negligible exchange contribution R2,ex at a νCPMG value of 500 Hz. In contrast to Langerin, a considerable exchange contribution is observed a lower νCPMG values. e. A representative binding isotherm for the affinity determination for 24 is shown. The KD value was determined from three independent titrations. The obtained K D and additional parameters from the fitting procedure are given in Tab le S3.
(1 picture or pasted object on this page, not shown here)
as §1
General remarks. Codon-optimized genes for the expression of Langerin and DC-SIGN in E. coli were purchased from GenScript and Life Technologies, respectively. All growth media or chemicals used for receptor expression and purification were purchased from Carl Roth if not stated otherwise. […]
Langerin and DC-SIGN carbohydrate recognition domain. Expression and purification were conducted as previously published14. Briefly, the monomeric 15N-labeled Langerin and DC-SIGN carbohydrate recognition domains (CRDs) were expressed insolubly in E. coli BL21* (DE3) (Invitrogen). Following enzymatic cell lysis, inclusion bodies were harvested and subsequently solubilized. The sample was centrifuged and the Langerin and DC-SIGN CRDs were refolded overnight via rapid dilution. Next, the sample was dialyzed overnight, centrifuged and purified via StrepTactin affinity chromatography (Iba). After an additional dialysis step overnight, the sample was centrifuged and the buffer was exchanged to 25 mM HEPES with 150 mM NaCl at pH 7.0 using 7 kDa size-exclusion desalting columns (Thermo Scientific) for 19F R2-filtered and 15N HSQC NMR experiments. The concentration of Langerin and DC -SIGN CRDs was determined via UV spectroscopy (A280, 0.1% = 3.19 and A280, 0.1% = 2.98). Purity and monodispersity of Langerin and DC - SIGN CRD samples were analyzed via SDS PAGE and DLS.
as §2, with “C. Experiments” for “C.”
with the DC-SIGN CRD were performed at a receptor concentration of 50 μM in 25 mM HEPES with 10% D2O, 150 mM NaCl and 5 mM CaCl2 at pH 7.0 and 25°C. TFA served as an internal reference at a concentration of 50 μM. Apparent relaxation rates R2,obs for the reporter ligand were determined using the CPMG pulse sequence as previously published3-5.
Assay development for DC-SIGN. The 19F R2-filtered NMR reporter displacement assay for DC-SIGN was developed following the procedure previously published for Langerin3. Briefly, the KD value and the relaxation rate in bound state R2,b were determined at five concentrations [L]T of reporter ligand 24 in three independent titration experiments. Samples were prepared via serial dilution. The addition of 10 mM EDTA served to validate the Ca2+-dependency of the interaction between DC-SIGN and the reporter ligand. […]

Structure (SMILES): OC[C@H]1OC(O)[C@@H](O)[C@@H](O)[C@@H]1O (some centres unmarked) [Man, mannose]
- Relative potency, Langerin [1]: 2.2
- Ki [2]: 4.5 ± 0.5 mM
- Kd (Langerin CRD): 6.5 ± 0.2 mM
- Ki (DC-SIGN CRD; 19F R2-filtered NMR, DC-SIGN CRD, pH 7.0, 25 °C): 3 ± 0.3 mM
- specificity (DC-SIGN CRD; Table 1, Langerin against DC-SIGN, from KI values): 0.67
